Assay results as given in patent US20190201419A1, “COMPOUND AND METHOD FOR THE TREATMENT AND DIAGNOSIS OF NEURODEGENERATIVE CONDITIONS” (Swansea University, priority 2013, published 2019).

Assays:
[1] = target: T1, Fxr (Homo sapiens, UniProt Q96RI1); test: Fxr luciferase reporter assay in SN4741 neural cells; type: cell-based, mouse; conditions: 24 h
T1 construct: expressed in transfected cells; host or cells: SN4741 mouse neuronal cell line
T1 sequence (Q96RI1 1-486): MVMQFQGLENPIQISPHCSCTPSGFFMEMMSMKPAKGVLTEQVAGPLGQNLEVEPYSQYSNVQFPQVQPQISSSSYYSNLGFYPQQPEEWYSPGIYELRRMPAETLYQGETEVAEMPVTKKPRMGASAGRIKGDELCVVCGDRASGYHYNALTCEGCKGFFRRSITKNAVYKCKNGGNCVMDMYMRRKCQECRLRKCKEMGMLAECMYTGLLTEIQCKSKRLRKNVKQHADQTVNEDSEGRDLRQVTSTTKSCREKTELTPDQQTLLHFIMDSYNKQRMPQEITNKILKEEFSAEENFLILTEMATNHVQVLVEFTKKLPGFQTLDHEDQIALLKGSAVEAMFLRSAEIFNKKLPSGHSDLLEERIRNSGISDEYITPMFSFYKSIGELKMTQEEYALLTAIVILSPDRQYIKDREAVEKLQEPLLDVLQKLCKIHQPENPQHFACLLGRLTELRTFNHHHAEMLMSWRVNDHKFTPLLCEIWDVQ
Experimental: (§1) Luciferase Reporter Assay. The ability of oxysterols and their acidic metabolites to activate several nuclear receptors i.e. Lxrα and β, Fxr, Vdr, Nurr1 was tested in luciferase assays. Transient transfection studies were performed in the mouse neuronal cell line SN4741. This cell line was selected as the oxysterols and acidic metabolites tested were initially identified in CSF. Cells were plated in 24-well plates ([…] cells/well) 24 hr before transfection and transfected with 1 μg of plasmid DNA/well complexed with 2 μL of Lipofectarnine 2000 (Invitrogen), Cells were transfected with 400 ng of a Lxr-, Fxr-, Vdr- or Nurr1-responsive luciferase reporter construct, and 200 ng of Lxrα, Lxrβ, Fxr, Vdr or Nurr1. A reporter gene expressing the Renilla luciferase (pRL-TK, Promega) was co-transfected in all experiments as an internal control for normalization of transfection efficiency. After a 12 h incubation, the lipid/DNA mix was replaced with fresh 2.5% serum medium containing vehicle or appropriate ligand (10 μM), as specified in each experiment. […] Luciferase activities were assayed 24 h later using the Dual-Luciferase Reporter Assay System (Promega), following the manufacturer's protocol.

[2] = test system: Nur-related factor 1 (Nurr1)/retinoid X receptor (Rxr) heterodimers; test: DR5 element luciferase reporter assay (Nurr1/Rxr) in SN4741 neural cells; type: cell-based, mouse; conditions: 10 μM
Text: (§2) Luciferase Reporter Assay.

[3] = target: T2, Lxrα (Homo sapiens, UniProt Q13133); test: Lxrα luciferase reporter assay in SN4741 neural cells; type: cell-based, mouse
T2 construct: expressed in transfected cells; host or cells: SN4741 mouse neuronal cell line
T2 sequence (Q13133 1-447): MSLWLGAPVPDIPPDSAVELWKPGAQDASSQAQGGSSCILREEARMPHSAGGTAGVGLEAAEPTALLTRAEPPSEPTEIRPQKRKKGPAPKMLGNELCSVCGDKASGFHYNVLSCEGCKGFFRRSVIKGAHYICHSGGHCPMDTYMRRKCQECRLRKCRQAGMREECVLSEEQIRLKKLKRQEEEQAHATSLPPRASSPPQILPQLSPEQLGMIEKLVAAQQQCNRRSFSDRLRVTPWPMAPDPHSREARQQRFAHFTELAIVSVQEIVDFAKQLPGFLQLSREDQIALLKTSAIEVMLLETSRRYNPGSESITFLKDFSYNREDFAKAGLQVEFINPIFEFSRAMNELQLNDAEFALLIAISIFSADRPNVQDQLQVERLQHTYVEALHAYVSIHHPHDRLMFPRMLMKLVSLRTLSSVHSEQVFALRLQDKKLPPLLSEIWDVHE
Text: as §2

[4] = target: T3, Lxrβ (Homo sapiens, UniProt P55055); test: Lxrβ luciferase reporter assay in SN4741 neural cells; type: cell-based, mouse; conditions: SN4741 cells, 10 μM, 24 h
T3 construct: expressed in transfected cells; host or cells: SN4741 mouse neuronal cell line
T3 sequence (P55055 1-460): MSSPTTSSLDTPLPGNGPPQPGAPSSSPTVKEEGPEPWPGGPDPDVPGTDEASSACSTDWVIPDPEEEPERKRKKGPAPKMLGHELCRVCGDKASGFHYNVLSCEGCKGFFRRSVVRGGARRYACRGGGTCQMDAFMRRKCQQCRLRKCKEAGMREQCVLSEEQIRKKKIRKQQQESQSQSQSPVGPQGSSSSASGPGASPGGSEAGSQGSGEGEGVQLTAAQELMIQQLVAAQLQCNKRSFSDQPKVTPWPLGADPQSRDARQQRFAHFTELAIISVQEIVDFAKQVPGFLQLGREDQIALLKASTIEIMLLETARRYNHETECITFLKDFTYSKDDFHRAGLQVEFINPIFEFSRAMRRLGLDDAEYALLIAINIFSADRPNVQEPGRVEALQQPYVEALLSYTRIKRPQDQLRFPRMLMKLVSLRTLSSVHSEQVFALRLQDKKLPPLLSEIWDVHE
Text: as §2

[5] = test system: active caspase 3+ cells; test: Active caspase 3+ cells in mouse E11.5 brain primary cultures; type: cell-based; conditions: wt cultures; 3β,7α-diHCA, 3βH,7O-CA, 25-HC at 10 μM; toxic acids at low concentrations
Experimental: (§3) Primary Brain Cultures. Brains from E11.5 mice were manually dissected, plated on poly-D-lysine (150,000 cells/cm^2) and grown in serum-free N2 media consisting of 1:1 mixture of F12 and DMEM with 10 ng/mL insulin, 100 μg/mL apo-transferrin, 100 μM putrescine, 20 nM progesterone, 30 nM selenium, 6 mg/mL glucose, and 1 mg/mL BSA. Cells were treated for 3 days in vitro (DIV) with the compounds of interest, fixed with 4% PFA and processed for staining using appropriate antibodies.
(§4) Antibodies and Detection Procedures. Cells were fixed in 4% PFA, washed in PBS and blocked in 5% normal goat serum/PBS for 1 h at room temperature. Primary antibodies were diluted in PBS (pH 7.4), 0.3% Triton X-100, 1% BSA and incubations were carried out overnight at +4° C. or at room temperature for 2 h. The antibodies used were anti-:BrdU (1:400; Abeam), Islet-1 (1:100: Developmental Studies Hybridoma Bank), cleaved caspase-3 (Aspt 75) (1:100; Cell Signaling Technology), tyrosine hydroxylase (TH; 1:1000; Pel-Freeze) GABA (1:1,000; Sigma), Bm3a (1:250; Millipore), Nkx6.1 (1:200; Novus Biologicals), choline acetyltransferase (ChAT; 1:500; Millipore) and appropriate secondary antibodies (Jackson ImmunoResearch or Alexa). Cells positive for the corresponding marker were counted directly at the microscope at a magnification of 20×. Cells were counted in every well, in eight consecutive fields (going from one side of the well to the other, passing through the center), in three different wells per experiment and in three different experiments per condition. Random pictures of the wells were taken for every condition to document the result, and representative pictures were subsequently selected to represent the quantitative data. Photos were acquired with a Zeiss Axioplan microscope and a Hamamatsu camera C4742-95 using the Openlab software.

[6] = test system: Islet1+ oculomotor neurons; test: Islet1+ cells in mouse E11.5 brain primary cultures; type: cell-based
Experimental: as §3, §4

[7] = LC-ESI-MSn of cholestenoic acids in mouse brain; conditions: 23 month old male Cyp7b1−/− mice
Text: Animals. Lxra,−/−β−/− mouse cell cultures were from the colony at the Department of Biosciences and Nutrition at Novum, Karolinska Institutet. Male and female wild-type and Lxrα−/−β−/− mice were generated as previously described (Alberti et al. J. Clin. Invest 2001:107(5), 565-73). Mice were back crossed onto a C57BL/6 background for 10 generations. Male Cyp7b1−/− mouse brain and plasma were from animals generated at the University of Edinburgh. Male mice homozygous for targeted disruption of the Cyp7b1 gene congenic on the C57BL/6 genetic background (>15 generations backcrossed to C57BL/6) and wild-type littermate controls were generated from Cyp7b1−/+ crosses. Male cyp27a1−/− mouse tissue and plasma was purchased from The Jackson Laboratory (ME, USA) strain B6.129-Cyp27a1^tm1Elt/J. The Cyp27a1−/− colony was backcrossed to C57BL/6J inbred mice for approximately 12 generations by the donating investigator prior to sending to The Jackson Laboratory Repository. Upon arrival, mice were bred to C57BL/6J inbred mice for at least one generation to establish the colony. Wild type animals from the colony were used as controls.
Extraction of Sterols. […]
Charge Tagging of Sterols. The sterols were charge-tagged with the GP-hydrazine to enhance their response when analysed by LC-ESI-MS and tandem mass spectrometry (MS^n).

[8] = test system: Islet-1; test: Islet-1 expression in Tg[Isl1:GFP] zebrafish embryos; type: in vivo; conditions: 10 μM, embryos 48 hpf
Experimental: Quantitative PCR, Total RNA was extracted from SN4741. cells and zebrafish treated with the compounds of interest using the RNeasy Mini Kit (Qiagen), 1 μg was treated with RQ1 RNase-free DNase (Promega) and reverse transcribed using SuperScript II Reverse Transcriptase (invitrogen) and random primers (invitrogen) (RT+reaction). Parallel reactions without reverse transcriptase enzyme were done as a control (RT−reaction), and Sybergreen real-time quantitative PCR assays were performed. Expression levels were obtained by normalization with the Value of the housekeeping gene encoding actin obtained for every sample in parallel assays.
Zebrafish Strain and Maintenance Zebrafish were raised on a 14/10 h day/night cycle and were kept at 28.5 ° C. Islet-1:GFP transgenic embryos were obtained via natural spawning and staged in hours or days post fertilization (hpf and dpt) according to Kimmel et al). Embryos older than 24 hpf were treated with 0.03% phenylthiourea (PTU) to inhibit pigmentation. MO injections were performed using splice site specific zebrafish lxi MO MO injected embryos were immediately dechorionated and transferred to a 96 well plate and exposed to dimethyl sulfoxide (DMSO) treated or ligand treated medium. Compound Exposure. Islet-1:GFP embryos were collected by natural mating and immediately (at 1 cell stage) dechorionated and transferred to a 96 well plate. Each of the compounds tested were obtained as 10 mM stock and diluted in embryo medium to a final concentration of 10 μM, and 200 μL was added to each well. DMSO or propan-2-ol treated embryo medium was taken as control. Ligand solutions were replaced every 12 h with fresh ligand solution prepared in PTU treated embryo medium. Embryos were collected at 48 hpf, fixed for 4 h at room temperature with 4% paraformaldehyde and then washed and kept in PBST. Immunocytochemistry was performed using an anti-GFP antibody and fluorescence was viewed and photographed using a Zeiss Axioplan compound microscope and a Zeiss Axiocam digital camera.

[9] = target: T4, Vdr (Homo sapiens, UniProt P11473); test: Vdr luciferase reporter assay in SN4741 neural cells; type: cell-based, mouse; conditions: 10 μM
T4 sequence (P11473 1-427): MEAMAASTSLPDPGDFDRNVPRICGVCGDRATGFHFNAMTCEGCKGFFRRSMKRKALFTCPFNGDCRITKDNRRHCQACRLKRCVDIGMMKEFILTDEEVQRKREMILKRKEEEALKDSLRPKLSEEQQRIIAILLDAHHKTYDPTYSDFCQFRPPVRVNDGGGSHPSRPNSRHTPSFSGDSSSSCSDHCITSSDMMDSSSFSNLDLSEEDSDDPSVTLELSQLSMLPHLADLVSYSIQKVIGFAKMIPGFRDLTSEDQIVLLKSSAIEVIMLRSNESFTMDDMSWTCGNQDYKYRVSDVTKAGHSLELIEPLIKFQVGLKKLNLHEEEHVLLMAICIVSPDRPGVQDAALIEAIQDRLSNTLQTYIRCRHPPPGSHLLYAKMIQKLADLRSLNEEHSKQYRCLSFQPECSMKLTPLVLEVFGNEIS
Experimental: as §1

## C[C@H](CCC(=O)O)[C@H]1CC[C@H]2[C@@H]3CC=C4C[C@@H](O)CC[C@]4(C)[C@H]3CC[C@]12C [3βH-Δ^5-BA, 3β-hydroxychol-5-en-24-oic acid]
[1]
  Fxr activation, luciferase reporter: also activated Fxr, but was less potent than CDCA

## CC1=C(/C=C/C(C)=C\C=C\C(C)=C\C(=O)O)C(C)(C)CCC1 [9-cis-RA, 9-cis-retinoic acid]
[2]
  DR5 (Nurr1/Rxr) luciferase reporter activation: activated this reporter

## C[C@H](CCCC(C)(C)O)[C@H]1CC[C@H]2[C@@H]3CC=C4C[C@@H](O)CC[C@]4(C)[C@H]3CC[C@]12C [25-HC, cholest-5-ene-3β,25-diol]
[3]; 10 μM metabolite + 10 μM GGPP
  Lxr luciferase activity with addition of the Lxr antagonist GGPP: similarly blocked
[3]; 10 μM, 24 h
  Lxrα activation, luciferase activity (fold activation): activate Lxr
[4]
  Lxrβ activation, luciferase activity (fold activation): activate Lxr
[5]
  Number of active caspase-3+ cells: reduced the number of active caspase-3+ cells
[6]; cultures from Lxrα−/−β−/− mice
  Effect on Islet1+ cells in Lxrα−/−β−/− cultures: blocked in cultures from Lxrα−/−β−/− animals
[6]; wild type cultures
  Number of Islet1+ cells: increase the number of Islet1+ oculomotor cells
[6]; wt cultures, 10 μM GGPP
  Effect on Islet1+ cells with Lxr antagonist GGPP: inhibited by the Lxr antagonist GGPP
[7]
  Level in Cyp7b1−/− mouse brain: > 2 ng/mg
[8]
  Islet-GFP expression: induced a modest increase in the levels of islet-1

## C[C@H](CCC(=O)O)[C@H]1CC[C@H]2[C@@H]3CC[C@@H]4C[C@H](O)CC[C@]4(C)[C@H]3CC[C@]12C [LCA, lithocholic acid]
[9]
  Vdr activation, luciferase reporter: activated a vitamin D receptor (Vdr) luciferase reporter
